Test results reported in PMC9413995, “Synthesis and Assessment of the In Vitro and Ex Vivo Activity of Salicylate Synthase (Mbti) Inhibitors as New Candidates for the Treatment of Mycobacterial Infections” (Pharmaceuticals, 2022).
Values after ≈ are worked out from the molar mass of the structure shown. Values joined by “and” are separate entries in the source; they are usually repeats but may differ in a detail not shown here. Equal values may be shown once. “Also recorded” adds a separate entry of the source. Read-outs that look alike come from different tables or passages of the source.

What was measured:
[1] = biological target: T1, Recombinant M. tuberculosis MbtI (Mycobacterium tuberculosis, UniProt P9WFX1); experiment: MbtI enzymatic assay (fluorimetric); format: biochemical; conditions: for IC50: MbtI activity, calculated for compounds showing %RA < 20; for remaining activity at 100 µM / % RA (percentage of residual enzymatic activity): compound at 100 μM, 50 µM chorismic acid; for remaining activity at 100 µM: read-out: % RA (percentage of residual enzymatic activity)
T1 construct: made in house
T1 sequence (P9WFX1 whole entry): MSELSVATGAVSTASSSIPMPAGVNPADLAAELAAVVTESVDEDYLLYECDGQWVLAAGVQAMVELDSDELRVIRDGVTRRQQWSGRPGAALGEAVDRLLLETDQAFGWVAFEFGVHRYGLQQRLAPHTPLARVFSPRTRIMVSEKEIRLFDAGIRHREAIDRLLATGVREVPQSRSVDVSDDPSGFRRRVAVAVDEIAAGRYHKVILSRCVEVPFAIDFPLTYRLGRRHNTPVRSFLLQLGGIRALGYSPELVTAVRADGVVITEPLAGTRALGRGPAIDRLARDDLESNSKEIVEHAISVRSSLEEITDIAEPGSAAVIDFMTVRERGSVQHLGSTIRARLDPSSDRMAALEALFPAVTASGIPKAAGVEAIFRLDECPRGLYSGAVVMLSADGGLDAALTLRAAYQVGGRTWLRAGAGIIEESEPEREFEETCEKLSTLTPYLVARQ
Procedure: Recombinant M. tuberculosis MbtI was produced and purified, and enzyme activity determined as previously reported. All the reactions were performed at 37 °C, in a final volume of 400 μL of 50 mM Hepes pH 7.5, 5 mM MgCl2, containing 1–2 μM MbtI, by the addition of chorismic acid, and monitored using a Perkin Elmer LS3 fluorimeter (Ex. λ = 305 nm, Em. λ = 420 nm). […] IC50 values were determined by measuring the activity at different concentrations of the compound, and using the following equation with GraphPad software:(1) A[I] =A[0] × 1−[I]/[I]+IC50
where A[I] is the activity at inhibitor concentration [I] and A[0] is the activity in the absence of the inhibitor.

M. bovis BCG [2] = experiment: microbe, parasite or virus in culture; format: cell-based; conditions: iron-limiting chelated Sauton's medium, REMA, 15 days
M. bovis BCG [3] = conditions: previous lead; cited from earlier work
M. bovis BCG [4] = format: cell-based
M. abscessus = experiment: Infection assay of MPI-2-eGFP mAMs with M. abscessus tdTomato; format: cell-based
M. bovis BCG [5] = format: cell-based; remark: listed apart in the source
[6] = system: platelet (PLT), red blood cells (RBC), and white blood cells (WBC); experiment: Blood cell count in whole blood of healthy volunteers; format: cell-based, human; conditions: 100 nM, 500 nM, 1 µM, up to 3 h, room temperature
Procedure: (§1) Whole blood (WB), drawn with a 19-gauge needle without venous stasis into sodium citrate (0.129M, 1/10 volume/volume)-containing tubes (Vacutainer, Becton Dickinson), discarding the first 4 mL, was incubated with 1f (100 nM, 500 nM, and 1000 nM) or with solvent (DMSO; final dilution: 0.01%) up to 3 h at room temperature. Untreated (NT) WB of each healthy volunteer was used as a comparison.
(§2) PLT, RBC, and WBC counts were assessed at 0, 15, 30, 45, 60, 120 min and 3 h after the addition of 1f or solvent using Sysmex XE-2100 Automated Hematology Analyzer. Data were reported as count ± SD of each cell population. To evaluate the effect of 1f on platelet activation, conventional platelet activation markers [P-selectin and activated glycoprotein IIbIIIa (aGPIIbIIIa)], as well as platelet-associated tissue factor (TF) expression, were analyzed by WB flow cytometry as previously described at 0, 30 and 60 min after the addition of the highest concentration of 1f or solvent. […] Microvesicle formation, another well-known activation marker, was also assessed by flow cytometry at each time point after the addition of different concentrations of 1f or solvent. Fluorochrome-conjugated isotype controls were used to quantify the background labeling. […]

platelets = experiment: Platelet activation assessment by whole blood flow cytometry; format: cell-based, human
Procedure: as §1, §2

[7] = Mycobacterium tuberculosis variant bovis BCG, BCG, 360 h

N#Cc1cc(OCc2ccc3ccccc3c2)cc(-c2ccc(C(=O)O)o2)c1 [1j, 5-(3-Cyano-5-(naphthalen-2-ylmethoxy)phenyl)furan-2-carboxylic acid]
IC50 [1]: 34.8 ± 2.5 µM
remaining activity at 100 µM [1]: 19.8 ± 6.5%
MIC99 (M. bovis BCG [2]; [7]): 250 µM (≈ 92.3 µg/mL)
melting point: 209 °C (dec.)

N#Cc1cccc(-c2ccc(C(=O)O)o2)c1 [I, 5-(3-cyanophenyl)furan-2-carboxylic acid]
MIC99 (M. bovis BCG [3]): 250 µM (≈ 53.3 µg/mL)

N#Cc1cc(OC/C=C/c2ccccc2)cc(-c2ccc(C(=O)O)o2)c1 [1e, (E)-5-(3-(Cinnamyloxy)-5-cyanophenyl)furan-2-carboxylic acid]
IC50 [1]: 13.5 ± 1 µM
remaining activity at 100 µM [1]: 11.5 ± 1.7%
MIC99 (M. bovis BCG [2]; [7]): ~125 µM (≈ 43.2 µg/mL)
MIC99 (M. bovis BCG [2]): 125 µM (≈ 43.2 µg/mL)
melting point: 170 °C

N#Cc1cc(Oc2ccc3cccnc3c2)cc(-c2ccc(C(=O)O)o2)c1 [1i, 5-(3-Cyano-5-(quinolin-7-yloxy)phenyl)furan-2-carboxylic acid]
IC50 [1]: 16.6 ± 1 µM
remaining activity at 100 µM [1]: 13.9 ± 3.1%
MIC99 (M. bovis BCG [2]; [7]): 125 µM (≈ 44.5 µg/mL)
melting point: 263 °C (dec.)

N#Cc1cc(OCCCc2ccccc2)cc(-c2ccc(C(=O)O)o2)c1 [1d, 5-(3-Cyano-5-(3-phenylpropoxy)phenyl)furan-2-carboxylic acid]
% RA (percentage of residual enzymatic activity) [1]: 25.6 ± 5.8%
remaining activity at 100 µM [1]: ~25%
melting point: 186 °C

N#Cc1cc(Oc2ccc3ccccc3c2)cc(-c2ccc(C(=O)O)o2)c1 [1h, 5-(3-Cyano-5-(naphthalen-2-yloxy)phenyl)furan-2-carboxylic acid]
IC50 [1]: 16.3 ± 1.2 µM
remaining activity at 100 µM [1]: 12.7 ± 2%
MIC99 (M. bovis BCG [2]; [7]): 125 µM (≈ 44.4 µg/mL)
melting point: 226 °C

N#Cc1cc(Oc2ccccc2)cc(-c2ccc(C(=O)O)o2)c1 [1a, 5-(3-Cyano-5-phenoxyphenyl)furan-2-carboxylic acid]
IC50 [1]: 23.1 ± 2.6 µM
% RA (percentage of residual enzymatic activity) [1]: 14.0 ± 4.1%
remaining activity at 100 µM [1]: 14%
MIC99 (M. bovis BCG [2]; [7]): 125 µM (≈ 38.2 µg/mL)

N#Cc1cc(OCCc2ccccc2)cc(-c2ccc(C(=O)O)o2)c1 [1c, 5-(3-Cyano-5-phenethoxyphenyl)furan-2-carboxylic acid]
IC50 [1]: ~3 µM and 3 µM
remaining activity at 100 µM [1]: 0.6 ± 0.5%
MIC99 (M. bovis BCG [2]; [7]): 250 µM (≈ 83.3 µg/mL)
melting point: 202 °C

N#Cc1cc(OCc2ccccc2)cc(-c2ccc(C(=O)O)o2)c1 [1b, 5-(3-(Benzyloxy)-5-cyanophenyl)furan-2-carboxylic acid]
IC50 [1]: 15.6 ± 1.2 µM
remaining activity at 100 µM [1]: 1.2 ± 0.4%
MIC99 (M. bovis BCG [2]; [7]): 250 µM (≈ 79.8 µg/mL)
melting point: 187 °C

N#Cc1cc(OCCOc2ccccc2)cc(-c2ccc(C(=O)O)o2)c1 [1f, 5-(3-Cyano-5-(2-phenoxyethoxy)phenyl)furan-2-carboxylic acid]
IC50 [1]: 12.1 ± 2 µM
remaining activity at 100 µM [1]: 5.5 ± 2.4%
MIC99 (M. bovis BCG [2]; [7]): 63 µM (≈ 22 µg/mL)
minimal concentration that prevented the production of siderophores (M. bovis BCG [4]; CAS assay, M. bovis BCG in chelated Sauton's medium): 32 µM
relation of antimycobacterial activity to inhibition of iron uptake (Universal CAS assay) (M. bovis BCG [4]; M. bovis BCG culture supernatants, 15 days): correlated to the inhibition of iron uptake; also recorded: positively related to the inhibition of iron uptake
Mab_tdTomato load 3-days p.t with respect to the prior time point (M. abscessus; highest concentration tested (32 μM), plate reader): significantly reduced
intracellular Mab_tdTomato burden in infected cells (microscopy, image segmentation) (M. abscessus; up to 32 μM, 2- and 3-days p.t): did not display a decrease in the Mab_tdTomato burden
Mab infection clearance / Mab_tdTomato load in infected MPI-2_eGFP (M. abscessus; up to 32 μM, 2- and 3-days p.t, plate reader): did not resolve Mab infection; also recorded: did not detect a significant efficacy in killing intracellular bacteria
BCG_tdTomato fluorescence / eGFP in infected MPI-2_eGFP (M. bovis BCG [5]): did not detect a reduction in Tdtomato fluorescence nor an increase in eGFP; also recorded: did not detect a significant efficacy in killing intracellular bacteria
PLT, RBC, and WBC counts [6]: like untreated (NT) and DMSO-treated whole blood; also recorded: does not affect blood cell count; also recorded: no cytotoxicity against human cells
platelet activation markers: P-selectin, monocyte-platelet and granulocyte-platelet aggregates, aGPIIbIIIa (platelets; 1 µM (highest concentration), 0, 30, 60 min): not affected
platelet-associated Tissue Factor expression, microvesicle formation (platelets; 1 µM, 0, 30, 60 min): not influenced

N#Cc1cc(OCCNc2ccccc2)cc(-c2ccc(C(=O)O)o2)c1 [1g, 5-(3-Cyano-5-(2-(phenylamino)ethoxy)phenyl)furan-2-carboxylic acid]
IC50 [1]: ~18 µM and 18 µM
remaining activity at 100 µM [1]: 9.3 ± 2.2%
MIC99 (M. bovis BCG [2]; [7]): 250 µM (≈ 87.1 µg/mL)
